Settings: 303.15 K, Liquid, Vibrating tube method

FC(C(F)(F)F)C(F)(F)F [1,1,1,2,3,3,3-heptafluoropropane]
Settings | mass density [kg/m3]
8067 kPa | 1421.1
8093 kPa | 1421.3
8123 kPa | 1421.4
8152 kPa | 1421.5
8181 kPa | 1421.9
8211 kPa | 1422
8250 kPa | 1422.2
8280 kPa | 1422.3
8306 kPa | 1422.5
8340 kPa | 1422.8
8378 kPa | 1423
8411 kPa | 1423.1
8436 kPa | 1423.4
8471 kPa | 1423.6
8496 kPa | 1423.6
8526 kPa | 1423.9
8556 kPa | 1423.9
8581 kPa | 1424.3
8610 kPa | 1424.4
8640 kPa | 1424.4
8671 kPa | 1424.6
8697 kPa | 1424.8
8726 kPa | 1425
8752 kPa | 1425.2
8778 kPa | 1425.4
8808 kPa | 1425.5
8847 kPa | 1425.8
8873 kPa | 1425.9
8908 kPa | 1426.2
8947 kPa | 1426.2
8978 kPa | 1426.5
9004 kPa | 1426.6
9031 kPa | 1426.8
9066 kPa | 1426.9
9263 kPa | 1428.1
9299 kPa | 1428.3
9334 kPa | 1428.5
9370 kPa | 1428.6
9401 kPa | 1428.9
9445 kPa | 1429.1
9480 kPa | 1429.3
9502 kPa | 1429.4
9533 kPa | 1429.7
9567 kPa | 1429.9
9598 kPa | 1429.9
9634 kPa | 1430.2
9661 kPa | 1430.3
9693 kPa | 1430.5
9720 kPa | 1430.6
9747 kPa | 1430.8
9779 kPa | 1431.1
9806 kPa | 1431.2
9833 kPa | 1431.3
9878 kPa | 1431.5
9906 kPa | 1431.7
9938 kPa | 1431.8
9969 kPa | 1432.1
9996 kPa | 1432.3
10037 kPa | 1432.6
10069 kPa | 1432.6
10110 kPa | 1432.8
10137 kPa | 1433
10174 kPa | 1433.2
10201 kPa | 1433.4
10228 kPa | 1433.5
10255 kPa | 1433.7
10278 kPa | 1433.7
10311 kPa | 1434
10343 kPa | 1434
10379 kPa | 1434.3
10406 kPa | 1434.4
10434 kPa | 1434.6
10466 kPa | 1434.8
10494 kPa | 1434.9
10531 kPa | 1435.1
10559 kPa | 1435.3
10596 kPa | 1435.4
10629 kPa | 1435.8
10662 kPa | 1436
10695 kPa | 1436
10725 kPa | 1436.2
10753 kPa | 1436.4
10791 kPa | 1436.6
10824 kPa | 1436.9
10960 kPa | 1437.4
11032 kPa | 1437.7
11066 kPa | 1438
11105 kPa | 1438.2
11143 kPa | 1438.4
11183 kPa | 1438.6
11218 kPa | 1438.8
11258 kPa | 1439.1
11297 kPa | 1439.2
11332 kPa | 1439.3
11372 kPa | 1439.7
11402 kPa | 1439.8
11442 kPa | 1439.8
11473 kPa | 1440.1
11525 kPa | 1440.4
11555 kPa | 1440.6
11599 kPa | 1440.8
11633 kPa | 1441
11668 kPa | 1441.2
11703 kPa | 1441.2
11734 kPa | 1441.6
11770 kPa | 1441.7
11800 kPa | 1442
11840 kPa | 1442.2
11875 kPa | 1442.2
11915 kPa | 1442.5
11952 kPa | 1442.7
11987 kPa | 1442.8
12022 kPa | 1443
12052 kPa | 1443.3
12404 kPa | 1444.9
12445 kPa | 1445.1
12481 kPa | 1445.4
12527 kPa | 1445.6
12558 kPa | 1445.7
12595 kPa | 1446
12631 kPa | 1446.1
12681 kPa | 1446.4
12722 kPa | 1446.5
12752 kPa | 1446.7
12793 kPa | 1447
12830 kPa | 1447.2
12877 kPa | 1447.5
12924 kPa | 1447.5
12965 kPa | 1447.8
12995 kPa | 1447.8
13030 kPa | 1448.2
13077 kPa | 1448.3
13108 kPa | 1448.5
13150 kPa | 1448.8
13186 kPa | 1448.9
13229 kPa | 1449.2
13275 kPa | 1449.4
13317 kPa | 1449.6
13364 kPa | 1449.7
13400 kPa | 1449.9
13432 kPa | 1450.1
13468 kPa | 1450.3
13516 kPa | 1450.6
13547 kPa | 1450.6
13593 kPa | 1450.8
13620 kPa | 1451.1
13652 kPa | 1451.1
13689 kPa | 1451.3
13730 kPa | 1451.6
13762 kPa | 1451.7
13794 kPa | 1451.9
13826 kPa | 1452
13867 kPa | 1452.1
13900 kPa | 1452.4
13937 kPa | 1452.6
13966 kPa | 1452.7
14003 kPa | 1452.9
14032 kPa | 1453.1
14069 kPa | 1453.3
14113 kPa | 1453.4
14146 kPa | 1453.5
14189 kPa | 1453.8
14223 kPa | 1454.1
14261 kPa | 1454.1
14289 kPa | 1454.2
14322 kPa | 1454.4
14355 kPa | 1454.7
14388 kPa | 1454.9
14416 kPa | 1455
14450 kPa | 1455
14493 kPa | 1455
14521 kPa | 1455.4
14555 kPa | 1455.5
14875 kPa | 1457.1
14909 kPa | 1457.2
14938 kPa | 1457.4
14981 kPa | 1457.7
15024 kPa | 1457.9
15062 kPa | 1457.8
15091 kPa | 1458
15121 kPa | 1458.3
15159 kPa | 1458.3
15193 kPa | 1458.5
15222 kPa | 1458.7
15252 kPa | 1458.8
15283 kPa | 1459
15317 kPa | 1459.2
15351 kPa | 1459.2
15389 kPa | 1459.5
15422 kPa | 1459.6
15461 kPa | 1459.8
15500 kPa | 1459.9
15540 kPa | 1460.2
15578 kPa | 1460.3
15623 kPa | 1460.4
15662 kPa | 1460.6
15692 kPa | 1460.8
15721 kPa | 1461.1
15751 kPa | 1461.1
15780 kPa | 1461.1
15805 kPa | 1461.3
15840 kPa | 1461.4
15879 kPa | 1461.7
15914 kPa | 1461.8
15948 kPa | 1462
